The text below walks through data of ChEMBL document CHEMBL1201862, “PubChem BioAssay data set” (2004).

Experiment [1] can be described thus: CEM21 lymphoblast cell cytotoxicity, dose response, cytotoxicity control for viral fusion inhibitor project, CellTiter-Glo luminescence, cherry-picked (AID 652042).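 Note: potency for signal decrease meaning cytotoxicity.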 It is filed as functional, cell-based.
Experiment [2] in a line: inhibitors of intracellular T. cruzi replication, confirmation, NIH3T3 host cells, beta-gal luminescence (AID 2044).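 Note: intracellular parasites grown in NIH/3T3 mouse fibroblasts as host cells; luminescent beta-galactosidase reporter signal from transgenic T. cruzi replicating inside host cells; inhibitors lower the luminescence signal.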 The experiment is classed as functional, cell-based.
For experiment [3], the target named is Sphingosine 1-phosphate receptor 4 (Homo sapiens, UniProt O95977). The experiment in a line: Fluorescence dose response cell-based high throughput screening assay for antagonists of the Sphingosine 1-Phosphate Receptor 4 (S1P4). [Related pubchem assays: 1524 (Confirmation in triplicates.), 1510 (Primary screen.)]. The experiment is classed as functional.
Chain of Sphingosine 1-phosphate receptor 4 (O95977 whole entry, the tested form may be a part): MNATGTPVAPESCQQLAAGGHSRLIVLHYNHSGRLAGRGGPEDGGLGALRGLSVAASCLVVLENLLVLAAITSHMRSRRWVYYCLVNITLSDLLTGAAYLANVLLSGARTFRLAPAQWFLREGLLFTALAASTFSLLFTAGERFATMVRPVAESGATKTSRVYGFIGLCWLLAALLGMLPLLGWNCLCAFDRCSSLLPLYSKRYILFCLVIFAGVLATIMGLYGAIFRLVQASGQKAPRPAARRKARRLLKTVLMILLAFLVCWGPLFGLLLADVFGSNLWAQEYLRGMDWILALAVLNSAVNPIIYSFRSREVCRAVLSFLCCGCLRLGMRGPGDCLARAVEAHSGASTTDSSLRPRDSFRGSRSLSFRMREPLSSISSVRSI
Experiment [4] concerns the target Fatty acid synthase (Homo sapiens, UniProt P49327). Nature of the experiment: FAS thioesterase domain inhibitors, dose response, biochemical, kinetic fluorescence intensity (AID 624326).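 Note: rate of fluorescence rise from hydrolysis of a fluorogenic O-methyl fluorescein ester substrate.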 It is filed as functional.
The target of experiment [5] is T1, Sentrin-specific protease 7 (Homo sapiens, UniProt Q9BQF6).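 Note: Luminescence-based dose-response confirmation of ultra-high-throughput screening hits, measuring inhibition of SENP7.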
T1 sequence (Q9BQF6 whole entry): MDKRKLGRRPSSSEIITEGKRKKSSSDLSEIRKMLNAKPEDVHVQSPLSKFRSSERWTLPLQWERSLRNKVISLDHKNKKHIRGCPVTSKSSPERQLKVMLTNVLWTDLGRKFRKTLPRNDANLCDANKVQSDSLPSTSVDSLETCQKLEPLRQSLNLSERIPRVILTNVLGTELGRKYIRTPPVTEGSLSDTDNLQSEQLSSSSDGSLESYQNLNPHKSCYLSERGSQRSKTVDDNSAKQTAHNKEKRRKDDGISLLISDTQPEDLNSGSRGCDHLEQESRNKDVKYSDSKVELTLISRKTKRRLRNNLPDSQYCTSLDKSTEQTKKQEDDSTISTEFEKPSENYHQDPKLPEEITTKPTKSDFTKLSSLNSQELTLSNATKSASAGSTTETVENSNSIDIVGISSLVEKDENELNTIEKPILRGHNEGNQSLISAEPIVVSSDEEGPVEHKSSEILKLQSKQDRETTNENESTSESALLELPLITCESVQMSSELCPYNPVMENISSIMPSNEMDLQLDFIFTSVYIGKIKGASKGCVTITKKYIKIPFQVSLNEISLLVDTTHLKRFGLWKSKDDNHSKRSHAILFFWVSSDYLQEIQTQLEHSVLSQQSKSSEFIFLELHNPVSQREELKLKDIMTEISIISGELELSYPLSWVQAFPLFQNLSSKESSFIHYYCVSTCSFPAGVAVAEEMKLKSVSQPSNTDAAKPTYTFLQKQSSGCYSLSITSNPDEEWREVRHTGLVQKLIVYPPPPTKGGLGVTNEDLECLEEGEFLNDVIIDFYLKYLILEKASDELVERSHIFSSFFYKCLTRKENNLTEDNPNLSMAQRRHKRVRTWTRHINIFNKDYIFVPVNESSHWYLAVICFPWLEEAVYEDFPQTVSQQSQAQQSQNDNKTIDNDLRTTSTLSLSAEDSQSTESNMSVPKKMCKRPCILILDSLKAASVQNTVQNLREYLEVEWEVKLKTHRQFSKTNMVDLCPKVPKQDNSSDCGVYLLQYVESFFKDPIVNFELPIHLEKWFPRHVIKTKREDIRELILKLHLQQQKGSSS
It is filed as functional.

Experiment [6] deals with T2, Caspase-3 (Homo sapiens, UniProt P42574).
T2 sequence (P42574 whole entry): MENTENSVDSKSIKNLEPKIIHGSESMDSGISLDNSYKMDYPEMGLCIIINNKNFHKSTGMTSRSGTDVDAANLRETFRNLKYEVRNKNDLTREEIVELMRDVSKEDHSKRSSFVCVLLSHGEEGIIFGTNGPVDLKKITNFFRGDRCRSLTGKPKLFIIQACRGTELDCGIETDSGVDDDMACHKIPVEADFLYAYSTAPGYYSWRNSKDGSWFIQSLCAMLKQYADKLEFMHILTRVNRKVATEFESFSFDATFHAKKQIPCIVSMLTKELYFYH
It is filed as functional.

Experiment [7] deals with Peroxisome proliferator-activated receptor gamma/Nuclear receptor coactivator 1 (Homo sapiens, UniProt P37231). The experiment is classed as functional.
Chain of Peroxisome proliferator-activated receptor gamma/Nuclear receptor coactivator 1 (P37231 whole entry): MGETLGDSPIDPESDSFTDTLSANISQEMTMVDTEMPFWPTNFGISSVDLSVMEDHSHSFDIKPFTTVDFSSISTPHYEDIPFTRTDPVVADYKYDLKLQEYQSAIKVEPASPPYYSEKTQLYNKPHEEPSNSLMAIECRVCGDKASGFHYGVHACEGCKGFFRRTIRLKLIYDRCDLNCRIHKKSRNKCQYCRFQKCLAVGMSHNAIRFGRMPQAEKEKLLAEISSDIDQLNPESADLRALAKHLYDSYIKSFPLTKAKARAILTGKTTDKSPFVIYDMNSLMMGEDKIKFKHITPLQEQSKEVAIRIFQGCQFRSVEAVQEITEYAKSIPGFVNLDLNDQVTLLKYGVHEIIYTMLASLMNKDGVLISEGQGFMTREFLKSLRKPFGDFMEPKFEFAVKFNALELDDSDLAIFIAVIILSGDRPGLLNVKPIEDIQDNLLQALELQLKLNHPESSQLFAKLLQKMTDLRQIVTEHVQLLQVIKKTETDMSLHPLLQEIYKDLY
Chain of Peroxisome proliferator-activated receptor gamma/Nuclear receptor coactivator 1 (Q15788 whole entry, further chain): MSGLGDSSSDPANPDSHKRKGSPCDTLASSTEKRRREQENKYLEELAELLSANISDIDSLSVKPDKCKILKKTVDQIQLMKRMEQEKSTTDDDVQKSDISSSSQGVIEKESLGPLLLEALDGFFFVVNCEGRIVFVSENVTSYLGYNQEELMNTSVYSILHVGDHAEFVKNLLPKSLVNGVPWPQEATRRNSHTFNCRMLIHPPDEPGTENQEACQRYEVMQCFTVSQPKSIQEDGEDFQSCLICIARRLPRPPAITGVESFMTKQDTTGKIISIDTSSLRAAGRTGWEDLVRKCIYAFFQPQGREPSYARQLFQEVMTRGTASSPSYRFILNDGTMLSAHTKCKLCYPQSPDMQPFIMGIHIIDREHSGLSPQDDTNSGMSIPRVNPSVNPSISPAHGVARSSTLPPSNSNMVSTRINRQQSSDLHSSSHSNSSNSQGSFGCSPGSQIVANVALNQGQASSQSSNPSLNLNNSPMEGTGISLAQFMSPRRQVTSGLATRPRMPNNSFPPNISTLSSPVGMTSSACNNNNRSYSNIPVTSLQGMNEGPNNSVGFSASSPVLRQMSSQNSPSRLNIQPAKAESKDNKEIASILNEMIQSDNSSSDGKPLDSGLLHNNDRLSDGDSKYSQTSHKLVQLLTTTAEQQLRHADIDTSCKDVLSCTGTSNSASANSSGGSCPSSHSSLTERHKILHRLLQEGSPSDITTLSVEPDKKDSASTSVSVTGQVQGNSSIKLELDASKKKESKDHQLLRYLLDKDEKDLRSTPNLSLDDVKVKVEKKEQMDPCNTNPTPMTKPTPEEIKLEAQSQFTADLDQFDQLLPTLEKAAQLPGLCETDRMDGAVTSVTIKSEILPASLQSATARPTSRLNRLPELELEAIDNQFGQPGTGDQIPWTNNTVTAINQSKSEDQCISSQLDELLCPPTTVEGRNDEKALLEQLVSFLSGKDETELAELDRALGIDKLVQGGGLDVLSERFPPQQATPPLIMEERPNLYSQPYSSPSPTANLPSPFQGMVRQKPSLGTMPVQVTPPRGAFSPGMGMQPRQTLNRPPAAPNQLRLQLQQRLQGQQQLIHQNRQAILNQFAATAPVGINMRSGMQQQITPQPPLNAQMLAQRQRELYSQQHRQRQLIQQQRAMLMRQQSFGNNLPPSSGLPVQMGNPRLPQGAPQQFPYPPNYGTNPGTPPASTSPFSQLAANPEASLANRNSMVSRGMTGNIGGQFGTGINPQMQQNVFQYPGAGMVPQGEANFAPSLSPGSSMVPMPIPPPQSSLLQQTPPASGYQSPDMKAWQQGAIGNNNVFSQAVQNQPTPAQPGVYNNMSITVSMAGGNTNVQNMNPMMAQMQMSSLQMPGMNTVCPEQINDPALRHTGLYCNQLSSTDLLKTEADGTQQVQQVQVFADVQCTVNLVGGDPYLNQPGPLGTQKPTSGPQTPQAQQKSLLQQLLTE
Experiment [8] deals with T3, Hexokinase-1 (Homo sapiens, UniProt P19367).
T3 sequence (P19367 whole entry): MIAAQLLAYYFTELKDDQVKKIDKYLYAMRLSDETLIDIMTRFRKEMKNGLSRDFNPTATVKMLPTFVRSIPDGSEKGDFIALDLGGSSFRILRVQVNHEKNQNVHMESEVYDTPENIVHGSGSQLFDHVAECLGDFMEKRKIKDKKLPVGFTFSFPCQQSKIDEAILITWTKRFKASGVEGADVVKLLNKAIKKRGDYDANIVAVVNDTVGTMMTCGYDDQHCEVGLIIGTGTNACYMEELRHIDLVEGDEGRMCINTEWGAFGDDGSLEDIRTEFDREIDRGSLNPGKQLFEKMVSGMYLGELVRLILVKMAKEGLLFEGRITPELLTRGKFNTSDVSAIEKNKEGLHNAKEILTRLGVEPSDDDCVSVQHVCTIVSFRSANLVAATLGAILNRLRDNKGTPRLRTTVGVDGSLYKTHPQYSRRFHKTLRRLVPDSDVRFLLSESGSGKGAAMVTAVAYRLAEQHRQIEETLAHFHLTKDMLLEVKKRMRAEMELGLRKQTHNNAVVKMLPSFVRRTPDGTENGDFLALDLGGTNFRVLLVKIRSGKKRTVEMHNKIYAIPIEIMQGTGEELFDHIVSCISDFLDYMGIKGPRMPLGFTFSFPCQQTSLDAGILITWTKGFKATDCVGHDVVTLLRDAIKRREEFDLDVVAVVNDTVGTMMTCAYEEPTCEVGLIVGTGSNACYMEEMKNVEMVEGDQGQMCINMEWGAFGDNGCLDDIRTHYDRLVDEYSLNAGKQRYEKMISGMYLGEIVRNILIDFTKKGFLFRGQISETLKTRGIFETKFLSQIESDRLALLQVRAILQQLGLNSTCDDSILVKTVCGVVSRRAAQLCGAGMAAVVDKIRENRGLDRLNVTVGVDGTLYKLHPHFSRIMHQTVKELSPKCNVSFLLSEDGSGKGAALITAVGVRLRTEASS
The experiment in a line: hexokinase 1 activators, dose response, selectivity assay for HKDC1 activator project, biochemical (AID 504762). It is filed as functional.

“And” between values parts separate entries of the source, which are not always exact repeats. Identical values can stand only once. The source made the active and inactive calls.

Chain of Fatty acid synthase (P49327 whole entry, the tested form may be a part): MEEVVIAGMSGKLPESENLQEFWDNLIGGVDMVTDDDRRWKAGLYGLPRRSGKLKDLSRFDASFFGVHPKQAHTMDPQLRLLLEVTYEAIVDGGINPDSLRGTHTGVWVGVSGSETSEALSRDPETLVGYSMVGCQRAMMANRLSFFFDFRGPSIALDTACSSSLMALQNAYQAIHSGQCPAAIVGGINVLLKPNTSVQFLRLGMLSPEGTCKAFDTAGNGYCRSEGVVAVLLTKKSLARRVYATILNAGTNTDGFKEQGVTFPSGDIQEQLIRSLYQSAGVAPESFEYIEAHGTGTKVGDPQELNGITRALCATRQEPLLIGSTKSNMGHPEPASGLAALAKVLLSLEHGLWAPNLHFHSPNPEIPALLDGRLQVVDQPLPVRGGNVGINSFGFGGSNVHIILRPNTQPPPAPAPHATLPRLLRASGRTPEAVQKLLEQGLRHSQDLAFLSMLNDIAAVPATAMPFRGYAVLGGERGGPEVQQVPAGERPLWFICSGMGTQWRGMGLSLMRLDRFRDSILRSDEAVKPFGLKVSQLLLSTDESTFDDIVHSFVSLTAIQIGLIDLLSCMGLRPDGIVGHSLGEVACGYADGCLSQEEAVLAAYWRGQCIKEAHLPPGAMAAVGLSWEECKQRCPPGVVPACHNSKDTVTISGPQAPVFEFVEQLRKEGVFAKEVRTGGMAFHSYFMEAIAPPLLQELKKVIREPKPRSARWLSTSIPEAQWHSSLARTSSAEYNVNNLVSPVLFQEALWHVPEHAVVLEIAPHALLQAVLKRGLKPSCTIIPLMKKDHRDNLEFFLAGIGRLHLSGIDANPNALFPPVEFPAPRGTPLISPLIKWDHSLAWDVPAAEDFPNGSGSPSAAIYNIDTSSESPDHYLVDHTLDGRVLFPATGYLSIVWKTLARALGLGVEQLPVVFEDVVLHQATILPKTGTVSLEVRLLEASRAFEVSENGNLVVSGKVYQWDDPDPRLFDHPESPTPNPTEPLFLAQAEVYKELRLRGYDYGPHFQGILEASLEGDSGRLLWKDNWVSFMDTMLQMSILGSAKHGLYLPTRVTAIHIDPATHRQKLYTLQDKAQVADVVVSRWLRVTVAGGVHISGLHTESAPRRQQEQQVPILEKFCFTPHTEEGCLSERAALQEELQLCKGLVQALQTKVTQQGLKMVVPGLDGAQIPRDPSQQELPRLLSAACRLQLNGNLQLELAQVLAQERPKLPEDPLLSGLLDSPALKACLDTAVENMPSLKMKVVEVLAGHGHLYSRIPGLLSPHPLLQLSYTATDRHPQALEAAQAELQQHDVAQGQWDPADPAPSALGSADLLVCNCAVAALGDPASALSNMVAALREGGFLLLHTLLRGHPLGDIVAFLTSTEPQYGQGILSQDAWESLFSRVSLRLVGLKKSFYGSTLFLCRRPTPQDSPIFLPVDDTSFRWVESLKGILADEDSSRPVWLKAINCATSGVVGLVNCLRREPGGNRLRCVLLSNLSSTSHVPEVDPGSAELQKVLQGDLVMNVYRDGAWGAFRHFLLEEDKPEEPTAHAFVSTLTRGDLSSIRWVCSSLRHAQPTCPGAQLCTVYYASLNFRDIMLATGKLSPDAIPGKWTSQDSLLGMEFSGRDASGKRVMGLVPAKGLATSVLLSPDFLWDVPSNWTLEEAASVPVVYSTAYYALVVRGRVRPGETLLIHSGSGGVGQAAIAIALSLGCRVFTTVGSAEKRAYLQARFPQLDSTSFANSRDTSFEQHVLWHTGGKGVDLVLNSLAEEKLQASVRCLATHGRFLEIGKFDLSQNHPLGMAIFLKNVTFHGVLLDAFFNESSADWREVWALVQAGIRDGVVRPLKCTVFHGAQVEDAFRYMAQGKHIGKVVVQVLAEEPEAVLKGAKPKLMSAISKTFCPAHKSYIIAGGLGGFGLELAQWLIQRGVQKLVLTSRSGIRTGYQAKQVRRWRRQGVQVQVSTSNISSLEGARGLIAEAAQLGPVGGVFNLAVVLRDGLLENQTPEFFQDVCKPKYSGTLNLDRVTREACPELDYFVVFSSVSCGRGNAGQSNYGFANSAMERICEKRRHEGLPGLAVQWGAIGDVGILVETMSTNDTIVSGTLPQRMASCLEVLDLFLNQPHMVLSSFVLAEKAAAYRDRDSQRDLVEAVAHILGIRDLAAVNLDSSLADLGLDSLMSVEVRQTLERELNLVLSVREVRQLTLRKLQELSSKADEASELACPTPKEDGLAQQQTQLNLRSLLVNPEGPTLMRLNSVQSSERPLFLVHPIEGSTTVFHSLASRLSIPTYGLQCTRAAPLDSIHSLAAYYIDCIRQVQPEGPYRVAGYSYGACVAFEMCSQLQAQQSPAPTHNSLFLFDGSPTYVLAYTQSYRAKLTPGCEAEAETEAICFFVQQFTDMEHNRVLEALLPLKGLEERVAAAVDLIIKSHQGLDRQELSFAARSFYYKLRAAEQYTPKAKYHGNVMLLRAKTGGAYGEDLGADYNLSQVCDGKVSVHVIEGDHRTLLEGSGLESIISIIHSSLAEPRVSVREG

For `CCCCCCCCCCCCCCCCn1cc[n+](C)c1`, in experiment [1], the AC50 is 5.2 µM (active). The EC50 in experiment [2] was < 100 nM (active) and 103 nM (active).

`O=C(Nc1ccccc1Cl)/C(Cl)=C(\Cl)[S+]([O-])c1ccccc1` (stereo not drawn): the IC50 was 0.541 µM (active) in experiment [3] and 3.28 µM (active) in experiment [4].

As for `O=C(NC1(O)C(=O)c2ccccc2C1=O)c1ccccc1`, the half-inhibitory concentration (IC50) in experiment [5] was 2.99 µM (active); in experiment [6] it was 69.9 µM (active).

For `Cc1cc(C)nc(/N=c2/ssnc2Cl)c1`, the values for the EC50 in experiment [7] and in experiment [8] were > 79.4 µM (not active) and 39.9 µM (inactive), respectively.
